Laboratory results taken from US20240083861A1, “HSD17B13 INHIBITORS AND USES THEREOF” (FL2022-001, Inc., priority 2020, published 2024).

What follows are compounds tested against T1, Recombinant human HSD17B13 enzyme (Homo sapiens, UniProt Q7Z5P4) (assay: HSD17b13 NAD(P)H-Glo biochemical assay). Details: 50 uM estradiol, 1 mM NAD+, NAD(P)H-Glo luminescence; read-out: HSD17β13 IC50.
T1 sequence (Q7Z5P4 20-300): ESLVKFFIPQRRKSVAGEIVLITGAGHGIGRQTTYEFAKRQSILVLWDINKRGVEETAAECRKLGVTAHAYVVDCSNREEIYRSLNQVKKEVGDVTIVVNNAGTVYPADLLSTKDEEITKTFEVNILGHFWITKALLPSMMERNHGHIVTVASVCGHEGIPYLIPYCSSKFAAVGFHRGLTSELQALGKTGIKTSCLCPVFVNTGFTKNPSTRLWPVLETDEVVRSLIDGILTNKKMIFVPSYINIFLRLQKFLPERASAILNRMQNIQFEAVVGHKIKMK
Procedure: Example B-1: HSD17b13 NAD(P)H-Glo Biochemical Assay
Recombinant human HSD17B13 enzyme. Substrate: estradiol (Sigma β-Estradiol E8875), 100 mM in DMSO. Cofactor: NAD+ Grade I free acid (Sigma 10127965001), 20 mM in H2O. Assay buffer final concentration: 20 mM Tris pH7.4 with 0.002% Tween-20 and 0.02% BSA. Assay performed in 384 well solid bottom plate (Corning 3570). Enzymatic activity detected by NAD(P)H-Glo™ Detection System (Promega G9062).
Inhibitor compounds were serially diluted in DMSO and then further diluted in assay buffer to a 10× concentration consisting of 1% DMSO.
HSD17b13 enzyme was diluted in 1× assay buffer to the desired enzyme concentration based on the specific activity of the enzyme lot. 20 uL of diluted enzyme was added to each well along with 2.5 uL of 10× inhibitor solution. Assay plate was incubated at RT for 20 minutes, and then 2.5 uL of a 10× substrate/cofactor mix was added to each well for a final concentration of 50 uM estradiol and 1 mM NAD+. Assay plate was incubated at 37° C. for 3 hours. NAD(P)H-Glo™ Detection System reagents were prepared according to manufacturer's specifications, and 25 uL was added to each well. After incubating for 1 hour at RT, luminescence was measured.

Structure (SMILES)	IC50 [nM]
O=C(NC12CC(C1)C2)c1ccc2oc(-c3cc(C(F)(F)F)c(F)c(O)c3F)nc2c1 [Compound 1.13, N-(Bicyclo[1.1.1]pentan-1-yl)-2-(2,4-difluoro-3-hydroxy-5-(trifluoromethyl)phenyl)benzo[d]oxa-zole-5-carboxamide]	< 100
Cc1cc(-c2n[nH]c3cc(C4CCN(S(C)(=O)=O)CC4)ccc23)c(F)c(O)c1F [Compound 15.01, 2,6-Difluoro-3-methyl-5-(6-(1-(methylsulfony1)piperidin-4-y1)-1H-indazol-3-yl)phenol]	< 100
Cc1nnc(C2CN(c3ncc4c(-c5cc(C(F)(F)F)c(F)c(O)c5F)nn(C)c4n3)CCO2)o1 (centres unmarked) [Compound 18.52, 2,6-Difluoro-3-(1-methyl-6-(2-(5-methyl-1,3,4-oxadiazol-2-y1)morpholino)-1H-pyrazolo[3,4-d]pyrimidin-3-y1)-5-(trifluoromethyl)phenol]	100 to 1000
Cn1nc(-c2cc(C(F)(F)F)c(F)c(O)c2F)c2cnc(N3CCN(C(=O)c4ccccn4)CC3)nc21 [Compound 18.121, (4-(3-(2,4-Difluoro-3-hydroxy-5-(trifluoromethyl)phenyl)-1-methyl-1H-pyrazolo[3,4-d]pyrimidin-6-yl)piperazin-1-yl)(pyridin-2-yl)methanone]	100 to 1000
Oc1cc(-c2nc3cc(-c4ccc(O)c(Cl)c4)ccc3o2)ccc1F [Compound 3, 2-Chloro-4-(2-(4-fluoro-3-hydroxyphenyl)benzo[d]oxazol-5-yl)phenol]	100 to 1000
Cn1nc(-c2cc(O)c(F)c(C(F)(F)F)c2)c2ccc(C3CCN(S(C)(=O)=O)CC3)cc21 [Compound 15.02, 2-Fluoro-5-(1-methyl-6-(1-(methylsulfonyl)piperidin-4-y1)-1H-indazol-3-yl)-3-(trifluoromethyl)phenol]	100 to 1000
CN(C)C(=O)N1CCN(c2ncc3c(-c4cc(C(F)(F)F)c(F)c(O)c4F)nn(C)c3n2)CC12CCC2 [Compound 20.02, 8-(3-(2,4-Difluoro-3-hydroxy-5-(trifluoromethyl)phenyl)-1-methyl-1H-pyrazolo[3,4-d]pyrimidin-6-yl)-N,N-dimethy1-5,8-diazaspiro[3.5]nonane-5-carboxamide]	< 100
N#CC1(NC(=O)c2ccc3oc(-c4cc(C(F)(F)F)c(F)c(O)c4F)nc3c2)CCC1 [Compound 1.25, N-(1-Cyanocyclobutyl)-2-(2,4-difluoro-3-hydroxy-5-(trifluoromethyl)phenyl)benzo[d]oxa-zole-5-carboxamide]	< 100
CS(=O)(=O)N1CCN(c2cc3[nH]nc(-c4cc(O)c(F)c(C(F)(F)F)c4)c3cc2F)CC1 [Compound 9.24, 2-Fluoro-5-(5-fluoro-6-(4-(methylsulfonyl)piperazin-1-yl)-1H-indazol-3-yl)-3-(trifluoromethyl)phenol]	100 to 1000
Cn1nc(-c2cc(C(F)(F)F)c(F)c(O)c2F)c2cnc(N3CCCC(c4ncccn4)C3)nc21 (centres unmarked) [Compound 18.76, 2,6-Difluoro-3-(1-methyl-6-(3-(pyrimidin-2-y1)piperidin-1-yl)-1H-pyrazolo[3,4-d]pyrimidin-3-y1)-5-(trifluoromethyl)phenol]	< 100
CS(=O)(=O)N1CCN(c2ccc3oc(-c4cc(C(F)(F)F)cc(O)n4)nc3c2)CC1 [Compound 7.01, 6-(5-(4-(Methylsulfonyl)piperazin-1-yl)benzo[d]oxazol-2-yl)-4-(trifluoromethyl)pyridin-2-ol]	1000 to 30000

The remaining lines, values ahead:

IC50 [nM]	Structure (SMILES)
< 100	Cn1nc(-c2cc(C(F)(F)F)c(F)c(O)c2F)c2cnc(N3CCC(O)CC3)nc21 [Compound 18.04, 1-(3-(2,4-Difluoro-3-hydroxy-5-(trifluoromethyl)phenyl)-1-methyl-1H-pyrazolo[3,4-d]pyrimidin-6-y1)piperidin-4-ol]
100 to 1000	CN(C)C1CCN(c2ncc3c(-c4cc(C(F)(F)F)c(F)c(O)c4F)nn(C)c3n2)CC1 [Compound 18.31, 3-(6-(4-(Dimethylamino)piperidin-1-y1)-1-methyl-1H-pyrazolo[3,4-d]pyrimidin-3-y1)-2,6-difluoro-5-(trifluoromethyl)phenol]
100 to 1000	Cn1nc(-c2cc(C(F)(F)F)c(F)c(O)c2F)c2cnc(N3CCOC(CO)C3)cc21 (centres unmarked) [Compound 9.97, 2,6-Difluoro-3-(6-(2-(hydroxymethyl)morpholino)-1-methyl-1H-pyrazolo[4,3-c]pyridin-3-yl)-5-(trifluoromethyl)phenol]
< 100	Cn1nc(-c2cc(C(F)(F)F)c(F)c(O)c2F)c2cnc(N3CCOCC3)cc21 [Compound 9.57, 2,6-Difluoro-3-(1-methyl-6-morpholino-1H-pyrazolo[4,3-c]pyridin-3-yl)-5-(trifluoromethyl)phenol]
< 100	COCCN(c1cc2c(cn1)c(-c1cc(C(F)(F)F)c(F)c(O)c1F)nn2C)C1CCOCC1 [Compound 9.50, 2,6-Difluoro-3-(6-((2-methoxyethyl)(tetrahydro-2H-pyran-4-yl)amino)-1-methyl-1H-pyrazolo[4,3-c]pyridin-3-yl)-5-(trifluoromethyl)phenol]
< 100	Cn1nc(-c2cc(C(F)(F)F)c(F)c(O)c2F)c2cnc(N3CCC4(CCOC4)CC3)nc21 [Compound 18.37, 2,6-Difluoro-3-(1-methyl-6-(2-oxa-8-azaspiro[4.5]decan-8-yl)-1H-pyrazolo[3,4-d]pyrimidin-3-y1)-5-(trifluoromethyl)phenol]
100 to 1000	Cc1cc(N(C)C2CCOCC2)cc2c1c(-c1cc(C(F)(F)F)c(F)c(O)c1F)nn2C [Compound 9.137, 3-(1,4-Dimethyl-6-(methyl(tetrahydro-2H-pyran-4-yl)amino)-1H-indazol-3-yl)-2,6-difluoro-5-(trifluoromethyl)phenol]
100 to 1000	Cn1nc(-c2cc(C(F)(F)F)c(F)c(O)c2F)c2cnc(N3CCOCC3CC(=O)O)nc21 (centres unmarked) [Compound 18.40, 2-(4-(3-(2,4-Difluoro-3-hydroxy-5-(trifluoromethyl)phenyl)-1-methyl-1H-pyrazolo[3,4-d]pyrimidin-6-yl)morpholin-3-yl)acetic Acid]
< 100	Cn1nc(-c2cc(C(F)(F)F)c(F)c(O)c2F)c2cnc(N3CCOCC34CCC4)cc21 [Compound 9.35, 2,6-Difluoro-3-(1-methyl-6-(8-oxa-5-azaspiro[3.5]nonan-5-yl)-1H-pyrazolo[4,3-c]pyridin-3-yl)-5-(trifluoromethyl)phenol]
100 to 1000	CN(c1cc2c(cn1)c(-c1nc(C(F)(F)F)c(F)c(O)c1F)nn2C)C1CCOCC1 [Compound 22, 3,5-Difluoro-2-(1-methyl-6-(methyl(tetrahydro-2H-pyran-4-yl)amino)-1H-pyrazolo[4,3-c]pyridin-3-yl)-6-(trifluoromethyl)pyridin-4-ol]
< 100	COC1CCN(c2ncc3c(-c4cc(C(F)(F)F)c(F)c(O)c4F)nn(C)c3n2)CC1 [Compound 18.77, 2,6-Difluoro-3-(6-(4-methoxypiperidin-1-y1)-1-methyl-1H-pyrazolo[3,4-d]pyrimidin-3-yl)-5-(trifluoromethyl)phenol]

Same assay, conditions: at 10 uM compound; read-out: HSD17β13 % inhibition at 10 uM

inhibition at 10 µM [%]	Structure (SMILES)
50	O=C(NC12CC(C1)C2)c1ccc2oc(-c3cc(C(F)(F)F)cc(O)n3)nc2c1 [Compound 1.31, N-(Bicyclo[1.1.1]pentan-1-yl)-2-(6-hydroxy-4-(trifluoromethyl)pyridin-2-yl)benzo[d]oxazole-5-carboxamide]
